# Target: T1, h5-HT5A receptor (Homo sapiens, UniProt P47898)
# T1 construct: expressed in transfected cells; membranes used
# Assay: h5-HT5A [3H]5-CT binding assay
# Conditions: affinity for 5-HT5A; membranes of HEK293 cells expressing the h5-HT5A receptor gene, 2.5 nM [3H]5-CT
# Experimental: h5-HT5A [^3H]5-CT Binding Assay
# Membranes of HEK293 cells which permanently express the h5-HT5A receptor gene were incubated in 100 mM tris-HCl buffer (pH 7.7) containing 1 mM EDTA, in the presence of 2.5 nM [^3H]5-CT (total volume 600 μL). The total binding is defined as the binding that is observed when the membranes are incubated in the presence of only the radioligand. The inhibition induced by the compound is determined by incubation of cell membranes in the presence of the radioligand and various concentrations of the compound of interest. Nonspecific binding is defined as the [^3H]5-CT binding obtained by incubation of the membranes, the same as for the total binding, but in the presence of 10 μM methiothepine. Following incubation for 75 min at 30° C., the membrane suspension was filtered through a GF/B-Filter coated with 0.03% PEI, using a Skatron® harvesting system. The residual radioactivity in the filter was quantified by liquid scintillation counting.
# Various concentrations of the test substances were used in both assays, and the Ki or IC50 values were determined.
# T1 sequence (P47898 whole entry): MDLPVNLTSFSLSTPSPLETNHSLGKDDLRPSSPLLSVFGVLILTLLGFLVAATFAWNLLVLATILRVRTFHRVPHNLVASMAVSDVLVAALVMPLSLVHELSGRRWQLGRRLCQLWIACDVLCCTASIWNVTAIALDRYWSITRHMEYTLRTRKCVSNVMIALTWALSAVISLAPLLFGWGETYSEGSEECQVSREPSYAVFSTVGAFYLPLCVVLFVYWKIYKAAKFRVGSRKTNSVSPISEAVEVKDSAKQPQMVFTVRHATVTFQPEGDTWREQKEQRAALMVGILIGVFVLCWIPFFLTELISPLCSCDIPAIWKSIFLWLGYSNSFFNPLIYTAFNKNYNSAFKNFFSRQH
row,SMILES,Ki [nM]
1,"COc1ccccc1CNC(=N)Nc1cc(-c2ccc(F)cc2)ccn1 [Example 59, N-[4-(4-Fluorophenyl)pyridin-2-yl]-N′-(2-methoxybenzyl)guanidine acetate]",< 300
2,"COc1cccc(OC)c1CNC(=N)Nc1ncccc1-c1ccccc1 [Example 60, N-(2,6-Dimethoxybenzyl)-N′-(3-phenylpyridin-2-yl)guanidine acetate]",< 300
3,"COc1cccc(OC)c1CNC(=N)Nc1ncccc1-c1ccc(F)cc1 [Example 61, N-(2,6-Dimethoxybenzyl)-N′-(3-(4-fluorophenyl)pyridin-2-yl)guanidine acetate]",< 300
4,"COc1ccccc1CNC(=N)Nc1ncccc1-c1ccc(F)cc1 [Example 63, N-[3-(4-Fluorophenyl)pyridin-2-yl]-N′-(2-methoxybenzyl)guanidine acetate]",< 10000
5,"COc1cccc(OC)c1CNC(=N)Nc1ncccc1C#N [Example 65, N-(3-Cyanopyridin-2-yl)-N′-(2,6-dimethoxybenzyl)guanidine acetate]",< 10000
6,"COc1cccc(F)c1CNC(=N)Nc1cccc(Br)n1 [Example 72, N-(6-Bromopyridin-2-yl)-N′-(2-fluoro-6-methoxybenzyl)guanidine]",< 100
7,"N=C(NCc1ccccc1OC(F)(F)F)Nc1cccc(Br)n1 [Example 73, N-(6-Bromopyridin-2-yl)-N′-[2-(trifluoromethoxy)benzyl]guanidine]",< 100
8,"CC(C)Oc1ccccc1CNC(=N)Nc1cccc(Br)n1 [Example 74, N-(6-Bromopyridin-2-yl)-N′-(2-isopropoxybenzyl)guanidine]",< 100
9,"CCOc1ccccc1CNC(=N)Nc1cccc(Br)n1 [Example 75, N-(6-Bromopyridin-2-yl)-N′-(2-ethoxybenzyl)guanidine acetate]",< 100
10,"COc1cccc(C)c1CNC(=N)Nc1cccc(C#N)n1 [Example 76, N-(2-Methoxy-6-methylbenzyl)-N′-(6-cyanopyridin-2-yl)guanidine acetate]",< 100
11,"COc1cccc(F)c1CNC(=N)Nc1cccc(C#N)n1 [Example 77, N-(6-Cyanopyridin-2-yl)-N′-(2-fluoro-6-methoxybenzyl)guanidine acetate]",< 100
12,"COc1cccc(Cl)c1CNC(=N)Nc1cccc(C#N)n1 [Example 78, N-(2-Chloro-6-methoxybenzyl)-N′-(6-cyanopyridin-2-yl)guanidine acetate]",< 100
13,"N#Cc1cccc(NC(=N)NCc2ccccc2OC(F)(F)F)n1 [Example 79, N-(6-Cyanopyridin-2-yl)-N′-[2-(trifluoromethoxy)benzyl]guanidine acetate]",< 100
14,"CC(C)Oc1ccccc1CNC(=N)Nc1cccc(C#N)n1 [Example 80, N-(6-Cyanopyridin-2-yl)-N′-(2-isopropoxybenzyl)guanidine acetate]",< 100
15,"CCOc1ccccc1CNC(=N)Nc1cccc(C#N)n1 [Example 81, N-(6-Cyanopyridin-2-yl)-N′-(2-ethoxybenzyl)guanidine acetate]",< 100
16,"N#Cc1cccc(NC(=N)NCc2c(Cl)cccc2Oc2ccccc2)n1 [Example 82, N-(2-Chloro-6-phenoxybenzyl)-N′-(6-cyanopyridin-2-yl)guanidine acetate]",< 100

row,SMILES,Ki [nM]
1,"COc1cccc(OC)c1CNC(=N)Nc1ccc(-c2ccccc2)cn1 [Example 83, N-(2,6-Dimethoxybenzyl)-N′-(5-phenylpyridin-2-yl) guanidine acetate]",< 100
2,"COc1cccc(OC)c1CNC(=N)Nc1ccc(-c2ccc(F)cc2)cn1 [Example 84, N-(2,6-Dimethoxybenzyl)-N′-[5-(4-fluorophenyl)pyridin-2-yl]guanidine acetate]",< 100
3,"COc1cccc(OC)c1CNC(=N)Nc1ccc(C#N)cn1 [Example 85, N-(5-Cyanopyridin-2-yl)-N′-(2,6-dimethoxybenzyl)guanidine acetate]",< 100
4,"COc1ccccc1CNC(=N)Nc1ccc(-c2ccccc2)cn1 [Example 86, N-(2-Methoxybenzyl)-N′-(5-phenylpyridin-2-yl)guanidine]",< 100
5,"COc1ccccc1CNC(=N)Nc1ccc(-c2cccs2)cn1 [Example 87, N-(2-Methoxybenzyl)-N′-[5-(2-thienyl)pyridin-2-yl]guanidine]",< 100
6,"COc1ccccc1CNC(=N)Nc1ccc(-c2ccc(F)cc2)cn1 [Example 88, N-[5-(4-Fluorophenyl)pyridin-2-yl]-N′-(2-methoxybenzyl)guanidine acetate]",< 100
7,"COc1ccccc1CNC(=N)Nc1ccc(-c2ccc(C(F)(F)F)cc2)cn1 [Example 89, N-(2-Methoxybenzyl)-N′-{5-[4-(trifluoromethyl)phenyl]pyridin-2-yl}guanidine acetate]",< 300
8,"COc1ccccc1CNC(=N)Nc1ccc(C#N)cn1 [Example 90, N-(5-Cyanopyridin-2-yl)-N′-(2-methoxybenzyl)guanidine]",< 100
9,"COc1cccc(Cl)c1CNC(=N)Nc1ccc(I)cn1 [Example 91, N-(2-Chloro-6-methoxybenzyl)-N′-(5-iodopyridin-2-yl)guanidine acetate]",< 100
10,"COc1cccc(F)c1CNC(=N)Nc1ccc(I)cn1 [Example 92, N-(2-Fluoro-6-methoxybenzyl)-N′-(5-iodopyridin-2-yl)guanidine acetate]",< 100
11,"COc1cccc(C)c1CNC(=N)Nc1ccc(I)cn1 [Example 93, N-(5-Iodopyridin-2-yl)-N′-(2-methoxy-6-methylbenzyl)guanidine acetate]",< 100
12,"N=C(NCc1ccccc1Cl)Nc1ccc(I)cn1 [Example 94, N-(2-Chlorobenzyl)-N′-(5-iodopyridin-2-yl)guanidine acetate]",< 300
13,"COc1cccc(Cl)c1CNC(=N)Nc1ccc(C#N)cn1 [Example 95, N-(2-Chloro-6-methoxybenzyl)-N′-(5-cyanopyridin-2-yl)guanidine acetate]",< 100
14,"COc1cccc(F)c1CNC(=N)Nc1ccc(C#N)cn1 [Example 96, N-(5-Cyanopyridin-2-yl)-N′-(2-fluoro-6-methoxybenzyl)guanidine acetate]",< 100
15,"COc1cccc(C)c1CNC(=N)Nc1ccc(C#N)cn1 [Example 97, N-(5-Cyanopyridin-2-yl)-N′-(2-methoxy-6-methylbenzyl)guanidine acetate]",< 100
16,"N#Cc1ccc(NC(=N)NCc2ccccc2Cl)nc1 [Example 98, N-(2-Chlorobenzyl)-N′-(5-cyanopyridin-2-yl)guanidine acetate]",< 300

# Now from value to compound:
row,Ki [nM],SMILES
1,< 100,"COc1ccccc1CNC(=N)Nc1cccc(C#N)n1 [Example 52, N-(6-Cyanopyridin-2-yl)-N′-(2-methoxybenzyl)guanidine acetate]"
2,< 100,"COc1cccc(OC)c1CNC(=N)Nc1cccc(-c2ccccc2)n1 [Example 53, N-(2,6-Dimethoxybenzyl)-N′-(6-phenylpyridin-2-yl)guanidine acetate]"
3,< 100,"COc1cccc(OC)c1CNC(=N)Nc1cccc(-c2ccc(F)cc2)n1 [Example 54, N-(2,6-Dimethoxybenzyl)-N′-[6-(4-fluorophenyl)pyridin-2-yl]guanidine]"
4,< 100,"COc1cccc(OC)c1CNC(=N)Nc1cccc(C#N)n1 [Example 55, N-(6-Cyanopyridin-2-yl)-N′-(2,6-dimethoxybenzyl)guanidine acetate]"
5,< 100,"COc1cccc(OC)c1CNC(=N)Nc1cc(-c2ccccc2)ccn1 [Example 56, N-(2,6-Dimethoxybenzyl)-N′-(4-phenylpyridin-2-yl)guanidine diacetate]"
6,< 100,"COc1cccc(OC)c1CNC(=N)Nc1cc(-c2ccc(F)cc2)ccn1 [Example 57, N-(2,6-Dimethoxybenzyl)-N′-[4-(4-fluorophenyl)pyridin-2-yl]guanidine acetate]"
7,< 100,"COc1ccccc1CNC(=N)Nc1cc(-c2ccccc2)ccn1 [Example 58, N-(2-Methoxybenzyl)-N′-(4-phenylpyridin-2-yl)guanidine acetate]"
8,< 100,"COc1ccccc1CNC(=N)Nc1ncccc1-c1ccccc1 [Example 62, N-(2-Methoxybenzyl)-N′-(3-phenylpyridin-2-yl)guanidine acetate]"
9,< 100,"COc1cccc(OC)c1CNC(=N)Nc1cc(C#N)ccn1 [Example 64, N-(4-Cyanopyridin-2-yl)-N′-(2,6-dimethoxybenzyl)guanidine acetate]"
10,< 100,"COc1ccccc1CNC(=N)Nc1cc(C#N)ccn1 [Example 66, N-(4-Cyanopyridin-2-yl)-N′-(2-methoxybenzyl)guanidine acetate]"
11,< 100,"COc1ccccc1CNC(=N)Nc1ccc(Cc2ccccc2)cn1 [Example 67, N-(5-Benzylpyridin-2-yl)-N′-(2-methoxybenzyl)guanidine acetate]"
12,< 100,"COc1cccc(OC)c1CNC(=N)Nc1ccc(Cc2ccccc2)cn1 [Example 68, N-(5-Benzylpyridin-2-yl)-N′-(2,6-dimethoxybenzyl)guanidine acetate]"
13,< 100,"COc1ccccc1CNC(=N)Nc1cccc(Cc2ccccc2)n1 [Example 69, N-(6-Benzylpyridin-2-yl)-N′-(2-methoxybenzyl)guanidine acetate]"
14,< 100,"COc1cccc(OC)c1CNC(=N)Nc1cccc(Cc2ccccc2)n1 [Example 70, N-(6-Benzylpyridin-2-yl)-N′-(2,6-dimethoxybenzyl)guanidine acetate]"
15,< 100,"COc1cccc(C)c1CNC(=N)Nc1cccc(Br)n1 [Example 71, N-(6-Bromopyridin-2-yl)-N′-(2-methoxy-6-methylbenzyl)guanidine]"

# Reference: patent publication US9296697B2, “Hetaryl-substituted guanidine compounds and use thereof as binding partners for 5-HT5-receptors” (Abbott Laboratories, priority 2005, dated 2016)
